Reference: publication PMC3744530, “CTA095, a Novel Etk and Src Dual Inhibitor, Induces Apoptosis in Prostate Cancer Cells and Overcomes Resistance to Src Inhibitors” (PLoS ONE, 2013)

Columns and labels:
PC3-AZD20 cells = experiment: MTT cell viability in Src inhibitor resistant cells; format: cell-based, human; conditions: 72 h
Experimental: PC3 and PC3-AZD20 (PC3 cell resistant to 20 μM AZD0530, which is from AstraZeneca through MTA with Dr. Chris Evans) cells were seeded at 2000 cells/well in 96 well plates overnight. The cells were treated with AZD0530 or CTA095 at the indicated concentrations. Cell viability was measured using an MTT assay after 72 h.
Figure 11 CTA095 overcomes Src inhibitor resistance in prostate cancer cells. PC3 and PC3-AZD20 (PC3 cell resistant to 20 μM AZD0530) cells were seeded at 2000 cells/well in 96 well plates overnight. The cells were treated with AZD0530 or CTA095 at the indicated concentrations. Cell viability was measured using MTT assay after 72 h. Symbols, mean; bars, standard deviation, n = 3.

[1] = system: PC3 cells stably transfected with GFP-LC3; set-up: method as in PMID 20811583; conditions: cited from earlier work
[2] = system: pEtk, pSrc, pSTAT3, Myc and BCL2 in PC3-AZD20 cells; experiment: Western blot of pEtk, pSrc, pStat3, Myc and BCL2; format: cell-based, human; conditions: PC3-AZD20, 10 μM
Experimental: PC3-AZD20 cells were seeded at 10^6 cells/well in 6 well plates overnight. The cells were treated with AZD0530 or CTA095 at 10 μM. Apoptosis was analyzed using Annexin-V FITC apoptosis detection kit. The mRNA levels of Myc and BCL2 were measured using real-time PCR. pEtk, Etk, pSrc, Src, pStat3, Stat3, Myc and BCL2 levels were measured using the corresponding antibodies through a Western blot.
Figure 12 CTA095 induces apoptosis in Src inhibitor resistant prostate cancer cells through Myc and BCL2 inhibition. PC3-AZD20 (PC3 cell resistant to 20 μM AZD0530) cells were seeded at 10^6 cells/well in 6 well plates overnight. The cells were treated with AZD0530 or CTA095 at 10 μM. Apoptosis was analyzed using Annexin-V FITC apoptosis detection kit (A). The mRNA levels of Myc and BCL2 were measured using real-time PCR (B). pEtk, Etk, pSrc, Src, pStat3, Stat3, Myc and BCL2 levels were measured using the corresponding antibodies through Western blot (C). Columns, mean; bars, standard deviation, n = 3.

## CN1CCN(CCOc2cc(OC3CCOCC3)c3c(Nc4c(Cl)ccc5c4OCO5)ncnc3c2)CC1 [AZD0530, reference compound]
PC3-AZD20 cells
  cell viability / sensitivity of PC3-AZD20 cells: resistant
[1]
  autophagy in prostate cancer cells: induces autophagy
[2]
  pEtk, pSrc, pSTAT3, Myc and BCL2 protein levels: pSrc and pSTAT3, but not c-myc and Bcl-2 were decreased
